Measured values published in patent publication US20240199608A1 (Eli Lilly and Company, priority 2022, published 2024).
Read-outs that look alike come from different tables or passages of the source.

Molecular target: T1, Human AhR (Homo sapiens, UniProt P35869)
T1 construct: expressed in transfected cells
T1 sequence (P35869 11-848): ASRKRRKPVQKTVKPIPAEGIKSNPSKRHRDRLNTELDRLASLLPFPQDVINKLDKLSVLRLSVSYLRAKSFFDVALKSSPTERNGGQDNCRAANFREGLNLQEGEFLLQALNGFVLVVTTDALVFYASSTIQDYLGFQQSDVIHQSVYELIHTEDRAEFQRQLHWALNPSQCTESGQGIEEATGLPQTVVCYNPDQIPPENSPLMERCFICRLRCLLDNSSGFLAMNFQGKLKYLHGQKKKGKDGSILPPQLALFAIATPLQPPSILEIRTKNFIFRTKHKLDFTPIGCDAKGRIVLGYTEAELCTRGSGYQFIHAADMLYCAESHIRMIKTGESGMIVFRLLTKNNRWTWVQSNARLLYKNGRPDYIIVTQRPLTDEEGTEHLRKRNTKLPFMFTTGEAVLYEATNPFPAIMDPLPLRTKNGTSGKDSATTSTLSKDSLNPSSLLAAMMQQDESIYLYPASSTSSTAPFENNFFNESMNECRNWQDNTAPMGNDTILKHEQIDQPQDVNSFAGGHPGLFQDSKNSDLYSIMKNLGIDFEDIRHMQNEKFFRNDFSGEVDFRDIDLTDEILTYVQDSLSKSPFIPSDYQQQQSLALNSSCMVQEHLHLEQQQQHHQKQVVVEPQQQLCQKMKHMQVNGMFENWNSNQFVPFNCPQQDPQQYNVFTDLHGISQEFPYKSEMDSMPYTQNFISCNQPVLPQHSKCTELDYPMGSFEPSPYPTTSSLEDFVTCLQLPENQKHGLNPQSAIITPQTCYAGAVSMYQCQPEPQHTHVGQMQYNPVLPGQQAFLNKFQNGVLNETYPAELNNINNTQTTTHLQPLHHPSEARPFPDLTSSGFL
Experiment: hAHR Nuclear Translocation Assay
Type: cell-based
Conditions: AhR-EGFP nuclear translocation in Jump-In T-REx HEK293 cells, 45 minutes incubation, read-out: Rel EC50
From the text: The purpose of this assay is to measure the ability of compounds to bind to, activate, and induce the translocation of AhR into the nucleus of a cell for transcription. Stable cell lines were established using Jump-InTM T-RExTM HEK293 Retargeting Kit (Life Technologies). Human AhR cDNA was cloned into the pJTI R4 CMV-TO EGFP vector. The EGFP was cloned to the C-terminal of AHR to form AhR-EGFP chimera. The pJTI R4 CMV-TO AhR-EGFP vector was transfected using FuGENE® HD into Jump-InTM T-RExTM HEK293 cells. Transfected cells were selected using 2.5 mg/ml G418 for 10 to 14 days, then expanded, harvested, and suspended in freeze media (FBS with 8% DMSO) at 2×10^7 cells/ml, and aliquots were stored in liquid nitrogen. One day before the assay date, cells were thawed and resuspended in DMEM with 5% FBS in the presence of 1 μg/ml Doxycycline and plated into ploy-L-Lysine coated […]-384 ULTRA Microplates (Perkin Elmer) at 12,000 to 15,000 cells per well and incubated at 37° C. and 5% CO2 overnight. On the assay date, compound was serially diluted (1:2) into 384-well nunc plates with DMSO using acoustic dispensing (ECHO®). The dose response was a 20-point curve. […] The culture media was damped and 25 μl of DMEM plus 0.1% BSA was added, then 25 μL of compound in DMEM plus 0.1% BSA was added into cell plates. Cells were incubated compounds at 37° C. and 5% CO2 for 45 minutes. The final DMSO concentration was 0.2%. The media was damped after 45 minutes incubation. The cells were fixed with 40 μl of cold MeOH (-20° C.) for 20 minutes. The MeOH was damped and 50 μL of DPBS containing 1 μg/mL Hochst was added into the cell plates. The intensity of EGFP was quantitated by using Opera PHENIX® or OPERETTA® high content image system (Perkin Elmer) with 20× Water Objective and five field per well. The ratio of EGFP fluorescent intensity in nuclear over cytosol was analyzed using a 4-parameter nonlinear logistic equation to determine the potency of AhR agonists.

COc1ccccc1NC(=O)c1cc2c(n3cnnc13)CCC2C (single isomer, unassigned) [Example 20, N-(2-methoxyphenyl)-6-methyl-7,8-dihydro-6H-cyclopenta[e][1,2,4] triazolo[4,3-a]pyridine-4-carboxamide]
EC50 (class symbols): > 50 nM

C[C@@H]1CCc2c1cc(C(=O)Nc1ncc(F)cn1)c1nncn21 [Example 6, (R)-N-(5-Fluoropyrimidin-2-yl)-6-methyl-7,8-dihydro-6H-cyclopenta[e][1,2,4]triazolo [4,3-a]pyridine-4-carboxamide]
EC50 (numeric values): 5.74 nM

CC1CCc2c1cc(C(=O)Nc1ncccc1F)c1nncn21 (single isomer, unassigned) [Example 36, N-(3-Fluoropyridin-2-yl)-6-methyl-7,8-dihydro-6H-cyclopenta[e][1,2,4] triazolo[4,3-a]pyridine-4-carboxamide]
EC50 (class symbols): 1 to 10 nM

CC1CCc2c1cc(C(=O)Nc1ncc(Cl)cn1)c1nncn21 (single isomer, unassigned) [Example 46, N-(5-Chloropyrimidin-2-yl)-6-methyl-7,8-dihydro-6H-cyclopenta[e][1,2,4] triazolo[4,3-a]pyridine-4-carboxamide]
EC50 (class symbols): 1 to 10 nM

CC1CCc2c1cc(C(=O)Nc1ccc(C(F)(F)F)cn1)c1nncn21 (single isomer, unassigned) [Example 34, 6-Methyl-N-(5-(trifluoromethyl)95yridine-2-yl)-7,8-dihydro-6H-cyclopenta[e][1,2,4] triazolo[4,3-a]pyridine-4-carboxamide]
EC50 (class symbols): 1 to 10 nM

CC1CCc2c1cc(C(=O)Nc1ncc(F)cn1)c1nccn21 (single isomer, unassigned) [Example 13, N-(5-Fluoropyrimidin-2-yl)-6-methyl-7,8-dihydro-6H-cyclopenta[e]imidazo[1,2-a]pyridine-4-carboxamide]
EC50 (numeric values): 0.495 nM

C[C@H]1CCc2c1cc(C(=O)Nc1ncc(F)cn1)c1nncn21 [Example 5, (S)-N-(5-Fluoropyrimidin-2-yl)-6-methyl-7,8-dihydro-6H-cyclopenta[e][1,2,4]triazolo [4,3-a]pyridine-4-carboxamide]
EC50 (numeric values): 5.79 nM

O=C(Nc1ncc(F)cn1)c1cc2ccccc2n2cnnc12 [Example 1, N-(5-Fluoropyrimidin-2-yl)-[1,2,4]triazolo[4,3-a]quinoline-4-carboxamide]
EC50 (numeric values): 3.1 nM

CC1CCc2c1cc(C(=O)Nc1ncc(Cl)cn1)c1nncn21 (single isomer, unassigned) [Example 47, N-(5-Chloropyrimidin-2-yl)-6-methyl-7,8-dihydro-6H-cyclopenta[e][1,2,4] triazolo[4,3-a]pyridine-4-carboxamide]
EC50 (class symbols): 1 to 10 nM

CC1CCc2c1cc(C(=O)Nc1ccc(C(F)(F)F)cn1)c1nncn21 (single isomer, unassigned) [Example 35, 6-Methyl-N-(5-(trifluoromethyl)pyridin-2-yl)-7,8-dihydro-6H-cyclopenta[e][1,2,4] triazolo[4,3-a]pyridine-4-carboxamide]
EC50 (class symbols): 1 to 10 nM

C[C@H]1CCc2c1cc(C(=O)Nc1ncc(F)cn1)c1nccn21 (single isomer, unassigned) [Example 14, N-(5-Fluoropyrimidin-2-yl)-6-methyl-7,8-dihydro-6H-cyclopenta[e]imidazo[1,2-a]pyridine-4-carboxamide]
EC50 (numeric values): 1.66 nM

CC1CCc2c1cc(C(=O)Nc1ncccn1)c1nncn21 (single isomer, unassigned) [Example 7, 6-Methyl-N-(pyrimidin-2-yl)-7,8-dihydro-6H-cyclopenta[e][1,2,4] triazolo[4,3-a]pyridine-4-carboxamide]
EC50 (numeric values): 11.1 nM

C[C@H]1CCc2c1cc(C(=O)Nc1ncccn1)c1nccn21 (single isomer, unassigned) [Example 12, 6-Methyl-N-(pyrimidin-2-yl)-7,8-dihydro-6H-cyclopenta[e]imidazo[1,2-a]pyridine-4-carboxamide]
EC50 (numeric values): 9.8 nM

O=C(Nc1ncc(F)cn1)c1cc2c(n3cnnc13)CCC2C1CCC1 (single isomer, unassigned) [Example 64, 6-Cyclobutyl-N-(5-fluoropyrimidin-2-yl)-7,8-dihydro-6H-cyclopenta[e][1,2,4] triazolo[4,3-a]pyridine-4-carboxamide]
EC50 (class symbols): 1 to 10 nM

CC1CCc2c1cc(C(=O)Nc1nccs1)c1nncn21 (single isomer, unassigned) [Example 25, 6-Methyl-N-(thiazol-2-yl)-7,8-dihydro-6H-cyclopenta[e][1,2,4] triazolo[4,3-a]pyridine-4-carboxamide]
EC50 (class symbols): 1 to 10 nM

CC1CCc2c1cc(C(=O)Nc1ncc(C(F)(F)F)cn1)c1nncn21 (single isomer, unassigned) [Example 27, 6-Methyl-N-(5-(trifluoromethyl)pyrimidin-2-yl)-7,8-dihydro-6H-cyclopenta[e][1,2,4] triazolo[4,3-a]pyridine-4-carboxamide]
EC50 (class symbols): 1 to 10 nM

COc1cnc(NC(=O)c2cc3c(n4cnnc24)CCC3C)nc1 (single isomer, unassigned) [Example 48, N-(5-Methoxypyrimidin-2-yl)-6-methyl-7,8-dihydro-6H-cyclopenta[e][1,2,4] triazolo[4,3-a]pyridine-4-carboxamide]
EC50 (class symbols): 10 to 50 nM

CC(C)c1nnc2c(C(=O)Nc3ncc(F)cn3)cc3c(n12)CCC3C (single isomer, unassigned) [Example 55, N-(5-Fluoropyrimidin-2-yl)-1-isopropyl-6-methyl-7,8-dihydro-6H-cyclopenta[e][1,2,4] triazolo[4,3-a]pyridine-4-carboxamide]
EC50 (class symbols): > 50 nM

CCC1CCc2c1cc(C(=O)Nc1ncc(F)cn1)c1nncn21 (single isomer, unassigned) [Example 56, 6-Ethyl-N-(5-fluoropyrimidin-2-yl)-7,8-dihydro-6H-cyclopenta[e][1,2,4] triazolo[4,3-a]pyridine-4-carboxamide]
EC50 (class symbols): 1 to 10 nM

CC1CCc2c1cc(C(=O)Nc1nccs1)c1nncn21 (single isomer, unassigned) [Example 24, 6-Methyl-N-(thiazol-2-yl)-7,8-dihydro-6H-cyclopenta[e][1,2,4] triazolo[4,3-a]pyridine-4-carboxamide]
EC50 (class symbols): 1 to 10 nM

O=C(Nc1ncc(F)cn1)c1cc2ccccc2n2ccnc12 [Example 2, N-(5-Fluoropyrimidin-2-yl)imidazo[1,2-a]quinoline-4-carboxamide]
EC50 (numeric values): 0.585 nM

CC1CCc2c1cc(C(=O)Nc1ncccn1)c1nccn21 (single isomer, unassigned) [Example 11, 6-Methyl-N-(pyrimidin-2-yl)-7,8-dihydro-6H-cyclopenta[e]imidazo[1,2-a]pyridine-4-carboxamide]
EC50 (numeric values): 1.58 nM

CC1CCc2c1cc(C(=O)Nc1cnn(C)n1)c1nncn21 (single isomer, unassigned) [Example 61, 6-Methyl-N-(2-methyl-2H-1,2,3-triazol-4-yl)-7,8-dihydro-6H-cyclopenta[e][1,2,4] triazolo[4,3-a]pyridine-4-carboxamide]
EC50 (class symbols): 1 to 10 nM

O=C(Nc1ncc(F)cn1)c1cc2c(n3cnnc13)CCC2C1CCC1 (single isomer, unassigned) [Example 65, 6-Cyclobutyl-N-(5-fluoropyrimidin-2-yl)-7,8-dihydro-6H-cyclopenta[e][1,2,4] triazolo[4,3-a]pyridine-4-carboxamide]
EC50 (class symbols): 1 to 10 nM
